A short description of series [1]: Slurry of the tromethamine salt in aqueous media (disproportionation). Type of series: physicochemical.
Series [2] in a line: Solid-form physical stability at ambient conditions / humidity. The class given is physicochemical.

The structures appear in SMILES notation. Structures can show the parent of a compound that is named as a salt.

With `O=C(O)c1ccnc(N2CC(O)(c3ccc(OCc4c(-c5c(Cl)cccc5Cl)noc4C4CC4)cc3Cl)C2)c1` [Formula I tromethamine salt], in series [1] (MeOH/water (0.4-0.6 water activity)), the “salt stability (disproportionation to zwitterion Form II)” value is given as “disproportionation”. Further, the “salt stability in slurry (disproportionation to zwitterion hydrate)” value in series [1] (slurry in water) is given as “disproportionation of the salt”.

Regarding `O=C(O)c1ccnc(N2CC(O)(c3ccc(OCc4c(-c5c(Cl)cccc5Cl)noc4C4CC4)cc3Cl)C2)c1` [Formula I tromethamine salt methanol solvate I], the “solid form conversion at ambient conditions” value (from here on “solid form conversion”) in series [2] (ambient conditions) was “loses methanol very rapidly at ambient conditions and converts to tromethamine salt methanol solvate III”.

With `O=C(O)c1ccnc(N2CC(O)(c3ccc(OCc4c(-c5c(Cl)cccc5Cl)noc4C4CC4)cc3Cl)C2)c1`, the “time to full conversion to Formula I tromethamine salt hydrate I” value in series [2] (ambient conditions, depending on % RH) is at most 1 h.

As to `O=C(O)c1ccnc(N2CC(O)(c3ccc(OCc4c(-c5c(Cl)cccc5Cl)noc4C4CC4)cc3Cl)C2)c1` [Formula I tromethamine salt Form II], the “moisture absorption and form conversion” value in series [2] (about >20% RH) is “rapidly absorbs moisture at about >20% RH and converts to Formula I tromethamine salt hydrate II”.

For `O=C(O)c1ccnc(N2CC(O)(c3ccc(OCc4c(-c5c(Cl)cccc5Cl)noc4C4CC4)cc3Cl)C2)c1` [Formula I tromethamine salt ethanol solvate], in series [2] (ambient conditions), the “solid form conversion” value is listed as “converted to Formula I tromethamine salt hydrate I at ambient conditions”.

Consider `O=C(O)c1ccnc(N2CC(O)(c3ccc(OCc4c(-c5c(Cl)cccc5Cl)noc4C4CC4)cc3Cl)C2)c1` [Formula I tromethamine salt MTBE solvate], for which the “solid form conversion” value in series [2] (ambient conditions) is recorded as “converted to disordered material at ambient conditions”.

(Values after patent US12102625B2, “Solid forms of FXR agonists” (Gilead Sciences, Inc., priority 2019, dated 2024).)
